Earlier results in patent US20070134724A1, “Phosphorylation of tau by abl” (priority 2005, published 2007).
Where a name gives a salt, the structure may show the parent alone. Read-outs that look alike come from different tables or passages of the source.

Tests used:
[1] = test system: Aβ; settings: neurons
[2] = test system: Aβ; settings: guinea pig brains

SMILES: Cc1ccc(NC(=O)c2ccc(CN3CCN(C)CC3)cc2)cc1Nc1nccc(-c2cccnc2)n1 [Gleevec, imatinib mesylate]
- production of Aβ [1]: inhibits
- production of Aβ [2]: inhibits
